From the supplement of paper PMC11208160

Experiment: recombinant barcode read abundance after kanamycin selection (control-corrected) (log10(CPM+1)); higher = more efficient recombination; sequences stand for … in AGTGCAGAGAAAATCGGCCAGTTTTCTCTGCCTGCAGTCCGCATGCCGT…AGATTTATGCAGCGGACTGCCTTTCTCCCAAAGTGATAAACCGGACAGTATCATGGACCGGTTTTCCCGGTAATCCGTATTTGCAAGGTTGGTTTCACT; site = the 11-nt target
Method in brief: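 Values are log10(CPM+1) from a pooled E. coli screen of targets paired with IS621 bridge RNA target-binding loops. Recombination efficiency here means counts per million of recombinant-junction barcodes, averaged and control-corrected. Plates were chloramphenicol/ampicillin LB agar for the control and chloramphenicol/ampicillin/kanamycin with 0.1 mM IPTG, two replicates each.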
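Note: IS621 recombinase and bridge RNA in Escherichia coli cells.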

Sequence | recombinant barcode read abundance (log10)
GCGGAATCTTGGGTTCTAACCTGTTGCCT (site TCGGAATCTAG) | 0.469
GCGGACGCTTGGGTTCTAACCTGTTGCCT (site CCGGACCCTAG) | 0.0428
GCGGACGCTTGGGTTCTAACCTGTTGCCT (site GCGGACGCTAG) | 1.72
GCGGGTCCTTGGGTTCTAACCTGTTGCGT (site GCGGGTCCTAC) | 2.98
GCGGGTCCTTGGGTTCTAACCTGTTGCGT (site GCTGCTCCTAC) | 0.0517
GCGGTTCCTTGGGTTCTAACCTGTTGCCT (site GCCGCTCCTAG) | 0.139
GCGGTTCCTTGGGTTCTAACCTGTTGCCT (site GCGGTTCCTAG) | 1.96
GCGTATCCTTGGGTTCTAACCTGTTGCCT (site GCGAATCCTAG) | 0.127
GCGTATCCTTGGGTTCTAACCTGTTGCCT (site GCGCATCCTAG) | 0.0623
GCGTATCCTTGGGTTCTAACCTGTTGCCT (site GCGGATCCTAG) | 0.23
GCGTATCCTTGGGTTCTAACCTGTTGCCT (site GCGTATCCTAG) | 0.93
GCGTCGTCTTGGGTTCTAACCTGTTGCCT (site GCATCGTCTAG) | 0.134
GCGTCGTCTTGGGTTCTAACCTGTTGCCT (site GCCTCGTCTAG) | 0.193
GCGTCGTCTTGGGTTCTAACCTGTTGCCT (site GCGTCGTCTAG) | 0.0822
GCGTCGTCTTGGGTTCTAACCTGTTGCCT (site GCTTCGTCTAG) | 0.229
GCGTCTCCTTGGGTTCTAACCTGTTGCAT (site GCGACTCCTAT) | 0.209
GCGTCTCCTTGGGTTCTAACCTGTTGCAT (site GCGCCTCCTAT) | 0.012
GCGTCTCCTTGGGTTCTAACCTGTTGCAT (site GCGGCTCCTAT) | 0.0731
GCGTCTCCTTGGGTTCTAACCTGTTGCAT (site GCGTCTCCTAT) | 0.335
GCGTTTGCTTGGGTTCTAACCTGTTGCCT (site GAGTTTGCTAG) | 0.106
GCGTTTGCTTGGGTTCTAACCTGTTGCCT (site GCGTTTGCTAG) | 1.01
GCGTTTGCTTGGGTTCTAACCTGTTGCCT (site GGGTTTGCTAG) | 0.0501
GCGTTTGCTTGGGTTCTAACCTGTTGCCT (site GTGTTTGCTAG) | 0
GCTAACACTTGGGTTCTAACCTGTTGCCT (site ACTAACACTAG) | 0.2
GCTAACACTTGGGTTCTAACCTGTTGCCT (site CCTAACACTAG) | 0.153
GCTAACACTTGGGTTCTAACCTGTTGCCT (site GCTAACACTAG) | 1.37

Sequence | recombinant barcode read abundance (log10)
GCTAACACTTGGGTTCTAACCTGTTGCCT (site TCTAACACTAG) | 0.075
GCTAACCCTTGGGTTCTAACCTGTTGCGT (site GCGAACCCTCC) | 0
GCTAACCCTTGGGTTCTAACCTGTTGCGT (site GCTAACCCTAC) | 3.05
GCTAGGACTTGGGTTCTAACCTGTTGCTG (site CGGTCTGCTAT) | 0.163
GCTAGGACTTGGGTTCTAACCTGTTGCTG (site GCTAGGACTCA) | 2.12
GCTCAACCTTGGGTTCTAACCTGTTGCCT (site GATCAACCTAG) | 0.796
GCTCAACCTTGGGTTCTAACCTGTTGCCT (site GCTCAACCTAG) | 1.6
GCTCAACCTTGGGTTCTAACCTGTTGCCT (site GGTCAACCTAG) | 0.176
GCTCAACCTTGGGTTCTAACCTGTTGCCT (site GTTCAACCTAG) | 0.126
GCTCACTCTTGGGTTCTAACCTGTTGCTT (site GCTCACTCTAA) | 1.63
GCTCACTCTTGGGTTCTAACCTGTTGCTT (site GTTCCCTCTAA) | 0.0084
GCTCAGCCTTGGGTTCTAACCTGTTGCCT (site GCTCAGACTAG) | 0.0954
GCTCAGCCTTGGGTTCTAACCTGTTGCCT (site GCTCAGCCTAG) | 1.14
GCTCAGCCTTGGGTTCTAACCTGTTGCCT (site GCTCAGGCTAG) | 0.16
GCTCAGCCTTGGGTTCTAACCTGTTGCCT (site GCTCAGTCTAG) | 0.072
GCTCCGTCTTGGGTTCTAACCTGTTGCTT (site ACTCCGTCTTA) | 0.047
GCTCCGTCTTGGGTTCTAACCTGTTGCTT (site GCTCCGTCTAA) | 0.644
GCTCGACCTTGGGTTCTAACCTGTTGCTG (site CGCTCCTCTAT) | 0.18
GCTCGACCTTGGGTTCTAACCTGTTGCTG (site GCTCGACCTCA) | 1.68
GCTCGTACTTGGGTTCTAACCTGTTGCAT (site GCTCGTACTAT) | 1.47
GCTCGTACTTGGGTTCTAACCTGTTGCAT (site TCGCGTACTAT) | 0.0401
GCTGAGACTTGGGTTCTAACCTGTTGCCG (site GATGAGACTCG) | 0.218
GCTGAGACTTGGGTTCTAACCTGTTGCCG (site GCTGAGACTCG) | 2.53
GCTGGACCTTGGGTTCTAACCTGTTGCAT (site GCTCGTCCTAT) | 0.0463
GCTGGACCTTGGGTTCTAACCTGTTGCAT (site GCTGGACCTAT) | 2.18
GCTGGCCCTTGGGTTCTAACCTGTTGCCT (site GATGGCCCTAG) | 0.0865

Sequence | recombinant barcode read abundance (log10)
GCTGGCCCTTGGGTTCTAACCTGTTGCCT (site GCTGGCCCTAG) | 1.18
GCTGGCCCTTGGGTTCTAACCTGTTGCCT (site GGTGGCCCTAG) | 0.0479
GCTGGCCCTTGGGTTCTAACCTGTTGCCT (site GTTGGCCCTAG) | 0.481
GCTGGTCCTTGGGTTCTAACCTGTTGCCT (site GCAGGTCCTAG) | 0.311
GCTGGTCCTTGGGTTCTAACCTGTTGCCT (site GCCGGTCCTAG) | 0.431
GCTGGTCCTTGGGTTCTAACCTGTTGCCT (site GCGGGTCCTAG) | 0.205
GCTGGTCCTTGGGTTCTAACCTGTTGCCT (site GCTGGTCCTAG) | 1.75
GCTTAAACTTGGGTTCTAACCTGTTGCCT (site ATGGCCTCTTA) | 0.0724
GCTTAAACTTGGGTTCTAACCTGTTGCCT (site GCTTAAACTAG) | 1.04
GCTTCCACTTGGGTTCTAACCTGTTGCCT (site ACTTCCACTAG) | 0.074
GCTTCCACTTGGGTTCTAACCTGTTGCCT (site CCTTCCACTAG) | 0.24
GCTTCCACTTGGGTTCTAACCTGTTGCCT (site GCTTCCACTAG) | 0.381
GCTTCCACTTGGGTTCTAACCTGTTGCCT (site TCTTCCACTAG) | 0.196
GCTTCGTCTTGGGTTCTAACCTGTTGCCT (site GCATCGTCTAG) | 0.427
GCTTCGTCTTGGGTTCTAACCTGTTGCCT (site GCCTCGTCTAG) | 0.129
GCTTCGTCTTGGGTTCTAACCTGTTGCCT (site GCGTCGTCTAG) | 0.0292
GCTTCGTCTTGGGTTCTAACCTGTTGCCT (site GCTTCGTCTAG) | 0.393
GGAAAAGCTTGGGTTCTAACCTGTTGCTT (site GGAAAAGCTAA) | 0.268
GGAAAAGCTTGGGTTCTAACCTGTTGCTT (site TCTTCGACTCT) | 0.153
GGAACGACTTGGGTTCTAACCTGTTGCGT (site CTCCGAGCTGT) | 0.0623
GGAACGACTTGGGTTCTAACCTGTTGCGT (site GGAACGACTAC) | 1.93
GGACACTCTTGGGTTCTAACCTGTTGCCT (site GGACACTCTAG) | 2.75
GGACACTCTTGGGTTCTAACCTGTTGCCT (site GGACACTCTTA) | 1.09
GGACATTCTTGGGTTCTAACCTGTTGCAT (site GGACATTCTAT) | 0.872
GGACATTCTTGGGTTCTAACCTGTTGCAT (site GTCCATTCTAT) | 0.0875
